Reference: US10098878B2, “HIF-2α inhibitors for treating iron overload disorders” (The Board of Regents of the University of Texas System, priority 2014, dated 2018)
Like-named read-outs stand apart in the source and are kept apart here.

Assays:
[1] = biological target: T1, HIF-2α HIS TAG-PASB Domain (Homo sapiens, UniProt Q99814); assay: HIF-2α Scintillation Proximity Assay (SPA); assay type: binding; conditions: 150 nM Compound 211 probe, 100 nM HIF-2α HIS TAG-PASB Domain; read-out: SPA IC50
T1 construct: 100 nM HIF-2α HIS TAG-PASB Domain
In short: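 IC50 values rest on percent inhibition, where the sample signal is scaled between high and low controls. Wells contain about 100 μL: compound dispensed as 2 μL of DMSO solution, 88 μL protein-probe mix and 10 μL of beads.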

[2] = system: 786-O-Hif-Luc cells; assay: Luciferase Assay; assay type: cell-based; conditions: read-out: Luciferase EC50
Experimental: A pool of infected cells were then selected against 2 μg/mL of puromycin (P8833, Sigma) for 10 days followed by limited dilution to select single clones.
Each concentration was tested in triplicate. After about 24 hours, luciferase activity was determined using ONE-Glo Luciferase Assay Reagent (E6110, Promega) following the manufacturer's recommended procedure. EC50 were calculated by using Dotmatics software.

[3] = system: 786-0 cells; assay: VEGF ELISA Assay; assay type: cell-based
Experimental: Each concentration had duplicated wells. About 20 hours later, medium was removed by suction and each well was supplied with 180 μL of growth medium. About 20 μl freshly-made 10× compound stocks were added to each well. […] The EC50 was calculated by GraphPad Prism using the dose-response-inhibition (four parameter) equation. The cell seeded plate was then subjected to CellTiter-Glo luminescence cell viability assay (Promega) by adding 50 μL of Celltiter Glo reagent into each well and shaking the plate for 8 minutes at 550 rpm (Thermomixer R, Eppendorf) then read luminescence signal in plate reader (3 second delay, 0.5 second/well integration time, Synergy 2 multi Detection Microplate reader) immediately.

[4] = 24 h, 786-O-Hif-Luc cells, about 24 hours
[5] = Homo sapiens, 786-0, 786-0 cells, VEGFA concentration in cell culture medium, read-out: VEGF ELISA EC50
[6] = 786-0 cells, VEGFA concentration in cell culture medium, read-out: VEGF ELISA EC50
[7] = Homo sapiens, 786-0, read-out: VEGF ELISA EC50

T1 sequence (Q99814 240-350 limits assumed): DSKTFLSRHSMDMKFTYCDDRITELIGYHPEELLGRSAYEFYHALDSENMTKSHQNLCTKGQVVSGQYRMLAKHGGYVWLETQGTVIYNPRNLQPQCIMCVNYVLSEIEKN

Row | IC50 [1] [nM] | EC50 [2, 4] [nM] | Structure (SMILES) | further results
1 | 27 | 28 | CS(=O)(=NC#N)c1ccc(Oc2cc(F)cc(C#N)c2)c2c1[C@H](O)C(F)(F)C2 (single isomer, unassigned) [Compound 20] | EC50 [3, 5]: 67 nM
2 | 94 | 195 | N#Cc1cc(F)cc(Oc2ccc(S(=N)(=O)CF)c3c2CC(F)(F)[C@H]3O)c1 (single isomer, unassigned) [Compound 38] | EC50 [3, 5]: 1440 nM
3 | < 5 |  | N#Cc1cc(F)cc(Oc2ccc(S(=N)(=O)C(F)(F)F)c3c2CC(F)(F)[C@H]3O)c1 (single isomer, unassigned) [Compound 69] | EC50 [3, 5]: 20 nM
4 | < 5 |  | N#Cc1cc(F)cc(Oc2ccc(S(=N)(=O)C(F)(F)F)c3c2CC(F)(F)[C@H]3O)c1 (single isomer, unassigned) [Compound 70] | EC50 [3, 6]: 19 nM
5 | < 5 |  | CS(=O)(=NC#N)c1ccc(Oc2cc(F)cc(C#N)c2)c2c1[C@H](O)C(F)(F)[C@@H]2F (single isomer, unassigned) [Compound 81] | EC50 [3, 6]: 14 nM
6 |  |  | O=S(=O)(c1ccc(Oc2cc(F)cc(Cl)c2)c2c1[C@H](O)CC2)C(F)F [Compound 2, (R)-4-(3-chloro-5-fluorophenoxy)-7-((difluoromethyl)sulfonyl)-2,3-dihydro-1H-inden-1-ol] | EC50 [3, 7]: 245 nM
7 |  |  | N#Cc1ccc(Oc2cc(F)cc(F)c2)c2c1[C@H](O)C(F)(F)C2 [Compound 4, (S)-7-(3,5-Difluorophenoxy)-2,2-difluoro-3-hydroxy-2,3-dihydro-1H-indene-4-carbonitrile] | EC50 [3, 7]: 217 nM
8 |  | 30 | O=S(=O)(c1ccc(Oc2ccc(F)c3[nH]ncc23)c2c1[C@H](O)C(F)(F)C2)C(F)(F)F [Compound 30, (S)-2,2-difluoro-4-((7-fluoro-1H-indazol-4-yl)oxy)-7-((trifluoromethyl)sulfonyl)-2,3-dihydro-1H-inden-1-ol] | EC50 [3, 5]: 54 nM
9 |  |  | N#Cc1cc(F)cc(Oc2ccc(S(N)(=O)=O)c3c2[C@@H](F)C(F)(F)[C@H]3O)c1 [Compound 102, (1R,3S)-7-(3-cyano-5-fluoro-phenoxy)-1,2,2-trifluoro-3-hydroxy-indane-4-sulfonamide] | EC50 ([2]; 24 h): 6 nM; EC50 [3, 7]: 11 nM
10 |  |  | O=S1(=O)c2ccc(Oc3cc(F)cc(Cl)c3)c(Br)c2C(O)C1(F)F (stereo not drawn) [Compound 119, 4-Bromo-5-(3-chloro-5-fluorophenoxy)-2,2-difluoro-3-hydroxy-2,3-dihydrobenzo[b]thiophene 1,1-dioxide] | EC50 ([2]; 786-O-Hif-Luc cells, about 24 hours): 46 nM; EC50 ([3]; Homo sapiens, 786-0 cells, VEGFA concentration in cell culture medium, read-out: VEGF ELISA EC50): 64 nM
11 | 120 | 366 | N#Cc1c(Oc2cc(F)cc(F)c2)ccc2c1[C@@H](O)CS2(=O)=O [Compound 178, (R)-5-(3,5-difluorophenoxy)-3-hydroxy-2,3-dihydrobenzo[b]thiophene-4-carbonitrile 1,1-dioxide] | 
12 | 12900 | 400 | N#Cc1cc(F)cc(Oc2ccc3c(c2C#N)[C@@H](O)CS3(=O)=O)c1 [Compound 180, (R)-5-(3-Cyano-5-fluorophenoxy)-3-hydroxy-2,3-dihydrobenzo[b]thiophene-4-carbonitrile 1,1-dioxide] | 
13 | 746 | 492 | N#Cc1c(Oc2cccc(F)c2)ccc2c1[C@@H](O)CS2(=O)=O [Compound 186, (R)-5-(3-fluorophenoxy)-3-hydroxy-2,3-dihydrobenzo[b]thiophene-4-carbonitrile 1,1-dioxide] | 
14 | 305 | 126 | O=S1(=O)c2ccc(Oc3cncc(F)c3)c(Br)c2[C@@H](O)C1(F)F [Compound 187, (R)-4-bromo-2,2-difluoro-5-((5-fluoropyridin-3-yl)oxy)-3-hydroxy-2,3-dihydrobenzo[b]thiophene 1,1-dioxide] | 
15 | 57 | 413 | COc1cc(F)cc(Oc2ccc3c(c2Br)[C@@H](O)C(F)(F)S3(=O)=O)c1 [Compound 190, (R)-4-Bromo-2,2-difluoro-5-(3-fluoro-5-methoxyphenoxy)-3-hydroxy-2,3-dihydrobenzo[b]thiophene 1,1-dioxide] | 
16 | 66 | 15000 | COc1cc(F)cc(Oc2ccc3c(c2C#N)[C@@H](O)C(F)(F)S3(=O)=O)c1 [Compound 191, (R)-2,2-difluoro-5-(3-fluoro-5-methoxyphenoxy)-3-hydroxy-2,3-dihydrobenzo[b]thiophene-4-carbonitrile 1,1-dioxide] | 
17 | 2900 | 1420 | Cc1cncc(Oc2ccc3c(c2Br)[C@@H](O)C(F)(F)S3(=O)=O)c1 [Compound 192, (R)-4-bromo-2,2-difluoro-3-hydroxy-5-((5-methylpyridin-3-yl)oxy)-2,3-dihydrobenzo[b]thiophene 1,1-dioxide] | 
18 | 17 | 32 | N#Cc1cccc(Oc2ccc3c(c2Br)[C@@H](O)C(F)(F)S3(=O)=O)c1 [Compound 194, (R)-3-((4-bromo-2,2-difluoro-3-hydroxy-1,1-dioxido-2,3-dihydrobenzo[b]thiophen-5-yl)oxy)benzonitrile] | 
19 | 384 | 425 | O=S1(=O)c2ccc(Oc3cncc(Cl)c3)c(Cl)c2[C@@H](O)C1(F)F [Compound 196, (R)-4-Chloro-5-((5-chloropyridin-3-yl)oxy)-2,2-difluoro-3-hydroxy-2,3-dihydrobenzo[b]thiophene 1,1-dioxide] | 
20 | 940 | 1100 | COc1c(Oc2cc(F)cc(C#N)c2)ccc2c1C(O)C(F)(F)S2(=O)=O (stereo not drawn) [Compound 197, 3-((2,2-Difluoro-3-hydroxy-4-methoxy-1,1-dioxido-2,3-dihydrobenzo[b]thiophen-5-yl)oxy)-5-fluorobenzonitrile] | 
21 | 975 | 882 | N#Cc1cc(F)cc(Oc2ccc3c(c2F)C(O)C(F)(F)S3(=O)=O)c1 (stereo not drawn) [Compound 198, 3-Fluoro-5-((2,2,4-trifluoro-3-hydroxy-1,1-dioxido-2,3-dihydrobenzo[b]thiophen-5-yl)oxy)benzonitrile] | 
22 | 34 | 33 | N#Cc1cccc(Oc2ccc3c(c2C(F)F)[C@@H](O)C(F)(F)S3(=O)=O)c1 [Compound 199, (R)-3-((4-(difluoromethyl)-2,2-difluoro-3-hydroxy-1,1-dioxido-2,3-dihydrobenzo[b]thiophen-5-yl)oxy)benzonitrile] | 
23 | 24 | 79 | O=S1(=O)c2ccc(Oc3ccc(F)c(F)c3)c(C(F)F)c2[C@@H](O)C1(F)F [Compound 200, (R)-4-(Difluoromethyl)-5-(3,4-difluorophenoxy)-2,2-difluoro-3-hydroxy-2,3-dihydrobenzo[b]thiophene 1,1-dioxide] | 
24 | 72 | 308 | N#Cc1cc(Oc2ccc3c(c2C(F)F)[C@@H](O)C(F)(F)S3(=O)=O)ccc1F [Compound 201, (R)-5-((4-(Difluoromethyl)-2,2-difluoro-3-hydroxy-1,1-dioxido-2,3-dihydrobenzo[b]thiophen-5-yl)oxy)-2-fluorobenzonitrile] | 
25 | 1890 | 1160 | O=S1(=O)c2ccc(OCC3CC3)c(C(F)F)c2[C@@H](O)C1(F)F [Compound 203, (R)-5-(Cyclopropylmethoxy)-4-(difluoromethyl)-2,2-difluoro-3-hydroxy-2,3-dihydrobenzo[b]thiophene 1,1-dioxide] | 
26 | 11 | 455 | O=S1(=O)c2ccc(Oc3cccc4sccc34)c(C(F)F)c2C(O)C1(F)F (stereo not drawn) [Compound 204, 5-(Benzo[b]thiophen-4-yloxy)-4-(difluoromethyl)-2,2-difluoro-3-hydroxy-2,3-dihydrobenzo[b]thiophene 1,1-dioxide] | 
27 | 1760 | 6900 | O=S1(=O)c2ccc(Oc3cccc4cn[nH]c34)c(C(F)F)c2C(O)C1(F)F (stereo not drawn) [Compound 205, 5-((1H-Indazol-7-yl)oxy)-4-(difluoromethyl)-2,2-difluoro-3-hydroxy-2,3-dihydrobenzo[b]thiophene 1,1-dioxide] | 
28 | 200 | 771 | CC1(O)c2c(ccc(Oc3cc(F)cc(C#N)c3)c2C(F)F)S(=O)(=O)C1(F)F (stereo not drawn) [Compound 206, 3-((4-(Difluoromethyl)-2,2-difluoro-3-hydroxy-3-methyl-1,1-dioxido-2,3-dihydrobenzo[b]thiophen-5-yl)oxy)-5-fluorobenzonitrile] | 
29 | 46 | 427 | N#Cc1c(Oc2cc(F)cc(F)c2)ccc2c1C(O)C(F)(F)S2(=O)=O (stereo not drawn) [Compound 207, 5-(3,5-Difluorophenoxy)-2,2-difluoro-3-hydroxy-2,3-dihydrobenzo[b]thiophene-4-carbonitrile 1,1-dioxide] | 
30 | 83 | 296 | CC1(O)c2c(ccc(Oc3cc(F)cc(F)c3)c2Br)S(=O)(=O)C1(F)F (stereo not drawn) [Compound 208, 4-Bromo-5-(3,5-difluorophenoxy)-2,2-difluoro-3-hydroxy-3-methyl-2,3-dihydrobenzo[b]thiophene 1,1-dioxide] | 
